Source: patent US20130123215A1, “2,5-DIOXOIMIDAZOLIDIN-1-YL-3-PHENYLUREA DERIVATIVES AS FORMYL PEPTIDE RECEPTOR LIKE-1 (FPRL-1) RECEPTOR MODULATORS” (ALLERGAN, INC., priority 2011, published 2013)
Where “and” joins values, the source holds several entries; their conditions need not be identical. Identical values can stand only once.

target: T1, FPRL-1 (Homo sapiens, UniProt P25090); test: FPRL-1 Ga16-CHO compound-induced calcium activity (FLIPR Tetra); assay type: cell-based; conditions: CHO-Gα16 cells stably expressing FPRL1; calcium activity on FLIPR Tetra; tested at 0.61 to 10,000 nM; read-out: FPRL-1 Ga16-CHO EC50
T1 construct: expressed in transfected cells; host or cells: CHO-Gα16 cells stably expressing FPRL1
T1 sequence (P25090 1-351): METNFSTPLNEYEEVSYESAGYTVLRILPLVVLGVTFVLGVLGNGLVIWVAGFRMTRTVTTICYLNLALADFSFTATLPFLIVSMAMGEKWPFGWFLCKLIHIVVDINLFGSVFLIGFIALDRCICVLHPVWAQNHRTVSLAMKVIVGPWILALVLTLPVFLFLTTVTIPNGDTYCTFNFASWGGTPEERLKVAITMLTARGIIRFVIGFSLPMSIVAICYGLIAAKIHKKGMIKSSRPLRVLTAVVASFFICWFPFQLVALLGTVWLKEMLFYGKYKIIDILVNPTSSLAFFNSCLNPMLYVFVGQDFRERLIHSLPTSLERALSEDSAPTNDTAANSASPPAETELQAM
Protocol: HEK-Gα16 and CHO-Gα16 cells stably expressing FPRL1 were cultured in (F12, 10% FBS, 1% PSA, 400 μg/ml geneticin and 50 μg/ml hygromycin) and HEK-Gqi5 cells stable expressing FPR1 were cultured in (DMEM high glucose, 10% FBS, 1% PSA, 400 μg/ml geneticin and 50 μg/ml hygromycin). In general, the day before the experiment, 18,000 cells/well were plated in a 384-well clear bottom poly-d-lysine coated plate. The following day the screening compound-induced calcium activity was assayed on the FLIPR^Tetra. The drug plates were prepared in 384-well microplates using the EP3 and the MultiPROBE robotic liquid handling systems. Compounds were tested at concentrations ranging from 0.61 to 10,000 nM. Results are expressed as EC50 (nM) and efficacy values.

Structure (SMILES) | EC50
CCc1ccc(NC(=O)NN2C(=O)NC(CC)(CC)C2=O)cc1 [Compound 4, 1-(4-Ethylphenyl)-3-(4,4-diethyl-2,5-dioxoimidazolidin-1-yl)urea] | 125 nM
O=C(Nc1ccc(Br)cc1F)NN1C(=O)NC2(CCCCC2)C1=O [Compound 15, 1-(4-Bromo-2-fluorophenyl)-3-(2,4-dioxo-1,3-diazaspiro[4.5]decan-3-yl)urea] | 233 nM
CCC1(CC)NC(=O)N(NC(=O)Nc2ccc(Br)cc2)C1=O [Compound 1, 1-(4-Bromophenyl)-3-(4,4-diethyl-2,5-dioxoimidazolidin-1-yl)urea] | 9.1 nM
CC(C)CC1(CCc2ccccc2)NC(=O)N(NC(=O)Nc2ccc(Br)cc2F)C1=O (stereo not shown) [Compound 32] | 105 nM
CCC1(CC)NC(=O)N(NC(=O)Nc2ccc(C#N)cc2)C1=O [Compound 5, 1-(4-Cyanophenyl)-3-(4,4-diethyl-2,5-dioxoimidazolidin-1-yl)urea] | 1230 nM
CC1(COc2ccccc2)NC(=O)N(NC(=O)Nc2ccc(Br)cc2F)C1=O (stereo not shown) [Compound 28, 1-(4-Bromo-2-fluorophenyl)-3-(4-methyl-2,5-dioxo-4-(phenoxymethyl)imidazolidin-1-yl)urea] | 52.1 nM
CCC1(C(C)C)NC(=O)N(NC(=O)Nc2ccc(Br)cc2F)C1=O (stereo not shown) [Compound 20, 1-(4-Bromo-2-fluorophenyl)-3-(4-ethyl-4-isopropyl-2,5-dioxoimidazolidin-1-yl)urea] | 6.3 nM
CCC1(CC)NC(=O)N(NC(=O)Nc2ccc(SC)cc2)C1=O [Compound 8, 1-(4-Methylthiophenyl)-3-(4,4-diethyl-2,5-dioxoimidazolidin-1-yl)urea] | 37.1 nM
CC(C)C1(CC(=O)NC(CO)CO)NC(=O)N(NC(=O)Nc2ccc(Br)cc2)C1=O (stereo not shown) [2-[1-{[(4-Bromophenyl)carbamoyl]amino}-2,5-dioxo-4-(propan-2-yl)imidazolidin-4-yl]-N-(1,3-dihydroxypropan-2-yl)acetamide] | 16.2 nM
CCC1(CCc2ccccc2)NC(=O)N(NC(=O)Nc2ccc(Br)cc2F)C1=O (stereo not shown) [Compound 29, 1-(4-Bromo-2-fluorophenyl)-3-(4-ethyl-2,5-dioxo-4-(phenethyl)imidazolidin-1-yl)urea] | < 2 nM
CCC1(CC)NC(=O)N(NC(=O)Nc2ccc(Br)cc2F)C1=O [Compound 6, 1-(4-Bromo-2-fluorophenyl)-3-(4,4-diethyl-2,5-dioxoimidazolidin-1-yl)urea] | 15.6 nM
CC1(CCc2ccccc2)NC(=O)N(NC(=O)Nc2ccc(Br)cc2F)C1=O (stereo not shown) [Compound 17, 1-(4-Bromo-2-fluorophenyl)-3-(4-methyl-2,5-dioxo-4-phenethylimidazolidin-1-yl)urea] | 61 nM
CC1(CCc2ccc(Cl)cc2)NC(=O)N(NC(=O)Nc2ccc(Br)cc2)C1=O (stereo not shown) [Compound 33, 1-(4-Bromophenyl)-3-(4-(4-chlorophenethyl)-4-methyl-2,5-dioxoimidazolidin-1-yl)urea] | 333 nM
CCC1(CC)NC(=O)N(NC(=O)Nc2ccc(OC)cc2)C1=O [Compound 3, 1-(4-Methoxyphenyl)-3-(4,4-diethyl-2,5-dioxoimidazolidin-1-yl)urea] | 194 nM

Results, then the compound that gave them:

EC50 | Structure (SMILES)
17.2 nM | CC1(CCc2ccccc2C(=O)O)NC(=O)N(NC(=O)Nc2ccc(Br)cc2)C1=O (stereo not shown) [Compound 78, 2-(2-(1-(3-(4-Bromophenyl)ureido)-4-methyl-2,5-dioxoimidazolidin-4-yl)ethyl)benzoic acid]
459 nM | CC(C)C1(CC(=O)O)NC(=O)N(NC(=O)Nc2ccc(Br)cc2)C1=O (stereo not shown) [Compound 81, 2-(1-(3-(4-Bromophenyl)ureido)-4-isopropyl-2,5-dioxoimidazolidin-4-yl)acetic acid]
7.9 nM | CC1(CCc2ccc(O)c(F)c2)NC(=O)N(NC(=O)Nc2ccc(Br)cc2)C1=O (stereo not shown) [Compound 47, 1-(4-Bromophenyl)-3-(4-(3-fluoro-4-hydroxyphenethyl)-4-methyl-2,5-dioxoimidazolidin-1-yl)urea]
39.8 nM | CC1(CCc2ccco2)NC(=O)N(NC(=O)Nc2ccc(Br)cc2F)C1=O (stereo not shown) [Compound 36]
7.4 nM | CC1(CCc2ccc(O)c(F)c2)NC(=O)N(NC(=O)Nc2ccc(Br)cc2F)C1=O (stereo not shown) [Compound 48, 1-(4-Bromo-2-fluorophenyl)-3-{4-[2-(3-fluoro-4-hydroxyphenyl)ethyl]-4-methyl-2,5-dioxoimidazolidin-1-yl}urea]
2.65 nM | CC(C)C1(CO)NC(=O)N(NC(=O)Nc2ccc(Br)cc2)C1=O (stereo not shown) [Compound 74, 1-(4-Bromophenyl)-3-(4-(hydroxymethyl)-4-isopropyl-2,5-dioxoimidazolidin-1-yl)urea]
86 nM | CC1(CCc2cccs2)NC(=O)N(NC(=O)Nc2ccc(Br)cc2F)C1=O (stereo not shown) [Compound 44]
7.9 nM | CC1(CCc2cccs2)NC(=O)N(NC(=O)Nc2ccc(Br)cc2)C1=O (stereo not shown) [Compound 43]
28.9 nM | COC(=O)c1ccccc1CCC1(C)NC(=O)N(NC(=O)Nc2ccc(Br)cc2)C1=O (stereo not shown) [Compound 59, Methyl 2-(2-(1-(3-(4-bromophenyl)ureido)-4-methyl-2,5-dioxoimidazolidin-4-yl)ethyl)benzoate]
14 nM | CC1(CCc2ccccc2F)NC(=O)N(NC(=O)Nc2ccc(Br)cc2)C1=O (stereo not shown) [Compound 37, 1-(4-Bromophenyl)-3-(4-(2-fluorophenethyl)-4-methyl-2,5-dioxoimidazolidin-1-yl)urea]
14.9 nM | CCC1(CCc2ccccc2C(=O)OC)NC(=O)N(NC(=O)Nc2ccc(Br)cc2F)C1=O (stereo not shown) [Compound 61, Methyl 2-(2-(1-(3-(4-bromo-2-fluorophenyl)ureido)-4-ethyl-2,5-dioxoimidazolidin-4-yl)ethyl)benzoate]
302 nM | CC(C)C1(CC(=O)NCC(=O)OC(C)(C)C)NC(=O)N(NC(=O)Nc2ccc(Br)cc2)C1=O (stereo not shown) [Compound 85, tert-Butyl 2-(2-(1-(3-(4-bromophenyl)ureido)-4-isopropyl-2,5-dioxoimidazolidin-4-yl)acetamido)acetate]
11.1 nM | CCC1(CCc2ccccc2C(=O)O)NC(=O)N(NC(=O)Nc2ccc(Br)cc2F)C1=O (stereo not shown) [Compound 80, 2-[2-(1-{[(4-Bromo-2-fluorophenyl)carbamoyl]amino}-4-ethyl-2,5-dioxoimidazolidin-4-yl)ethyl]benzoic acid]
56.2 nM | CC1(CCc2ccccc2F)NC(=O)N(NC(=O)Nc2ccc(Br)cc2F)C1=O (stereo not shown) [Compound 38, 1-(4-Bromo-2-fluorophenyl)-3-(4-(2-fluorophenethyl)-4-methyl-2,5-dioxoimidazolidin-1-yl)urea]
13.3 nM | CC1(CCc2ccc(O)cc2)NC(=O)N(NC(=O)Nc2ccc(Br)cc2)C1=O (stereo not shown) [Compound 42, 1-(4-Bromophenyl)-3-(4-(4-hydroxyphenethyl)-4-methyl-2,5-dioxoimidazolidin-1-yl)urea]
8.7 nM | CC1(CCc2ccc(O)cc2)NC(=O)N(NC(=O)Nc2ccc(Br)cc2F)C1=O (stereo not shown) [Compound 45, 1-(4-Bromo-2-fluorophenyl)-3-(4-(4-hydroxyphenethyl)-4-methyl-2,5-dioxoimidazolidin-1-yl)urea]
169 nM | CCc1ccc2[nH]c(C3(C)NC(=O)N(NC(=O)Nc4ccc(Br)cc4F)C3=O)cc2c1 (stereo not shown) [Compound 65, 1-(4-Bromo-2-fluorophenyl)-3-[4-(5-ethyl-1H-indol-2-yl)-4-methyl-2,5-dioxoimidazolidin-1-yl]urea]
79.1 nM | CC(C)C1(CC(=O)NCCC(=O)OC(C)(C)C)NC(=O)N(NC(=O)Nc2ccc(Br)cc2)C1=O (stereo not shown) [Compound 91, tert-Butyl 3-(2-(1-(3-(4-bromophenyl)ureido)-4-isopropyl-2,5-dioxoimidazolidin-4-yl)acetamido)propanoate]
< 2 nM | CC(C)C1(C(C)C)NC(=O)N(NC(=O)Nc2ccc(Br)cc2)C1=O [Compound 67, 1-(4-Bromophenyl)-3-[2,5-dioxo-4,4-di(propan-2-yl)imidazolidin-1-yl]urea]
1.5 nM and 2.07 nM | CC1(CCc2cccc(O)c2)NC(=O)N(NC(=O)Nc2ccc(Br)cc2)C1=O (stereo not shown) [Compound 52, 1-(4-Bromophenyl)-3-(4-(3-hydroxyphenethyl)-4-methyl-2,5-dioxoimidazolidin-1-yl)urea]
17 nM | CC1(CCc2ccc(F)cc2)NC(=O)N(NC(=O)Nc2ccc(Br)cc2)C1=O (stereo not shown) [Compound 39, 1-(4-Bromophenyl)-3-(4-(4-fluorophenethyl)-4-methyl-2,5-dioxoimidazolidin-1-yl)urea]

same assay, conditions: FPRL-1 Ga16-CHO EC50, CHO-Gα16 cells stably expressing FPRL1; calcium activity on FLIPR Tetra; tested at 0.61 to 10,000 nM

Structure (SMILES) | EC50 [nM]
CCOP(=O)(O)CNC(=O)CC1(C(C)C)NC(=O)N(NC(=O)Nc2ccc(Br)cc2)C1=O (stereo not shown) [Compound 89, Ethyl hydrogen((2-(1-(3-(4-bromophenyl)ureido)-4-isopropyl-2,5-dioxoimidazolidin-4-yl)acetamido)methyl)phosphonate] | 313
CCOP(=O)(CNC(=O)CC1(C(C)C)NC(=O)N(NC(=O)Nc2ccc(Br)cc2)C1=O)OCC (stereo not shown) [Compound 86, Diethyl((2-(1-(3-(4-bromophenyl)ureido)-4-isopropyl-2,5-dioxoimidazolidin-4-yl)acetamido)methyl)phosphonate] | 272
